Measured values taken from US10457709B2, “Antimicrobial peptides, their variants and uses” (priority 2015, dated 2019).
Where two headings read alike, the source gives them in different places. Square brackets hold non-standard residues; d marks the D form. Peptide text beside a SMILES is read from it.

Assays:
[1] = system: MRSA strains (S. aureus COL); test: MIC, synergistic activity with Ertapenem (4 μg/ml); assay type: cell-based, Staphylococcus aureus; settings: Ertapenem 4 μg/ml; D-form peptide
Method: Minimum inhibition concentrations (MICs) were determined against Escherichia coli (ATCC 25922), Staphylococcus aureus (ATCC 25923), Klebsiella pneumoniae (ATCC 10031) and Pseudomonas aeruginosa (ATCC 27853). Also clinical strains of E. coli, K. pneumoniae, E. cloacae, P. aeruginosa, Serratia marcescens, Proteus mirabilis, S. pneumoniae, Acinetobacter baumannii, A. johnsonii and S. aureus were used for MICs assays. Additionally, clinical strains of yeast including Candida albicans, C. glabrata, C. parapsilosis and C. quillermondiae were used. The susceptibility of these microorganisms to Chain peptides were determined using micro broth dilution assay. Colonies of the respective microorganism from Muller Hinton (MH) agar plates incubated overnight were suspended in MH broth media and final concentration of microorganism was adjusted to 5.0×10^5 cfu/ml. An aliquot of 10 μl of each Chain peptide, or gentamicin, tetracycline as reference antibiotics were added in differing concentrations along with 90 μl of bacterial suspension to 96 well polypropylene plates and incubated at 37° C. for 20 to 24 hours. Concentrations of Chain peptides and reference antibiotics ranged from 0.125 to 128 μg/ml and the MICs were recorded as the lowest concentration with no visual growth of bacteria. Similarly, antifungal MICs were tested in Potato dextrose broth.
Peptides Chain 104, Chain 105, Chain 201, Chain 308, Chain 310 were tested against antibiotic-sensitive strains of S. aureus RN4220 and methicillin resistant strains of S. aureus COL (MRSA). Chain peptides comprising of either L- or D-form amino acids were tested against these bacteria, and the D-form peptides were found have better activity compared to L-form (Table 6). Synergistic activity of chain peptides along with Ertapenem (4 μg/ml) was tested to know whether it will influence the activity against MRSA strains. […] Chain 310 has the best antibacterial activity against the MRSA strains with a MIC of 0.06 & 0.03 μg/ml along with Ertapenem (4 μg/ml) for both forms of L and D-peptides (Table 6).

[2] = system: Escherichia coli (ATCC 25922); assay type: cell-based; settings: Peptides 50 μg, Gentamycin 5 μg, diameter including the wells
Method: (§1) The radial diffusion assay (RDA) was carried out as described by Andersen et al. (2010). Briefly, 30 ml of 1/10 Muller-Hinton broth (MHB) supplemented with 1% agarose and 5.0×10^5 CFU/ml S. aureus or E. coli or K. pneumoniae, P. aeruginosa cells was poured into a single-well omnitray (Nunc) and overlaid with a TSP 96-well plate. […] The peptides were also tested against Fusarium oxysporum and Verticillium dahliae, for which ⅓ potato dextrose agarose was used. To test the synergistic effect of peptides, each peptide was mixed in equimolar concentrations. Mix1 (met1-12), Mix2 (met3, 4 and 5), Mix3 (met8, 9 and 10), Mix4 (met11, 12) and Mix5 (8, 9, 10, 11, 12) were prepared and tested against E. coli and S. aureus. Gentamicin and vancomycin were included as positive controls for bacteria and amphotericin B was used as the control for fungi.
(§2) By using rational design techniques, we have designed variants of peptides by incorporating or replacing various amino acids in the original peptides. Thus, we have designed and modified Chain 100, Chain 200 and Chain 300 with tryptophan (W), arginine (R) and lysine (K) at various positions to improve antimicrobial activity (FIGS. 4a-c and 5a-c). In some peptides we have also used other amino acids such as Leucine (L), Cysteine (C), Isoleucine (I), Phenylalanine (F) and Alanine (A). For synthesis, 32 variants and 3 original peptides were selected based on the various parameters such as positive charge, aliphatic index and instability index. Peptides variants were tested by using radial diffusion assay against Escherichia coli (ATCC 25922), Staphylococcus aureus (ATCC 25923), Klebsiella pneumoniae (ATCC 10031) and Pseudomonas aeruginosa (ATCC 27853) (FIGS. 6a-c). The zone of inhibition ranged between 10-18 mm for Escherichia coli and Staphylococcus aureus, 6-18 mm & 8-18 mm for Pseudomonas aeruginosa and Klebsiella pneumonia respectively (Table 2). For Gentamicin it was between 22-24 mm. Antifungal activity was tested for promising antibacterial peptides (Chains 104, 105, 109, 201, 204, 306, 307, 308, 310) against Aspergillus flavus (DSM 1959) and Penicillium chrysogenum (DSM 1075). All these peptides has activity at a concentration of 20 μg, Amphotericin B was used as a positive control at 20 μg (FIG. 7).

[3] = system: Klebsiella pneumoniae (ATCC 10031); assay type: cell-based; settings: Peptides 50 μg, Gentamycin 5 μg, diameter including the wells
Method: as §1, §2

[4] = system: Pseudomonas aeruginosa (ATCC 27853); assay type: cell-based; settings: Peptides 50 μg, Gentamycin 5 μg, diameter including the wells
Method: as §1, §2

[5] = system: Staphylococcus aureus (ATCC 25923); assay type: cell-based; settings: Peptides 50 μg, Gentamycin 5 μg, diameter including the wells
Method: as §1, §2

[6] = system: Escherichia coli (ATCC 25922); test: microbe, parasite or virus in culture; assay type: cell-based
Outline: (§3)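 Broth microdilution in Mueller-Hinton broth: overnight colonies suspended to 5.0×10^5 cfu/ml, exposed to peptide over 0.125–128 μg/ml, incubated at 37° C. for 20 to 24 hours. MIC taken as lowest concentration with no visible growth; gentamicin and tetracycline served as reference antibiotics.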

[7] = system: Klebsiella pneumoniae (ATCC 10031); test: microbe, parasite or virus in culture; assay type: cell-based
Outline: as §3

[8] = system: Pseudomonas aeruginosa (ATCC 27853); test: microbe, parasite or virus in culture; assay type: cell-based
Outline: as §3

[9] = system: Staphylococcus aureus (ATCC 25923); test: microbe, parasite or virus in culture; assay type: cell-based
Outline: as §3

| Compound | MIC against MRSA strains along with Ertapenem [1] [µg/mL] | Inhibition zone, Escherichia coli [2] | Inhibition zone, Escherichia coli ([2]; listed as Gentamycin) [mm] | Inhibition zone, Klebsiella pneumoniae [3] | Inhibition zone, Klebsiella pneumoniae ([3]; listed as Gentamycin) [mm] | Inhibition zone, Pseudomonas aeruginosa [4] | Inhibition zone, Pseudomonas aeruginosa ([4]; listed as Gentamycin) [mm] | Inhibition zone, Staphylococcus aureus [5] | Inhibition zone, Staphylococcus aureus ([5]; listed as Gentamycin) [mm] | Minimum inhibitory concentration, Escherichia coli (ATCC 25922) [6] [µg/mL] | Minimum inhibitory concentration, Klebsiella pneumoniae (ATCC 10031) [7] [µg/mL] | Minimum inhibitory concentration, Pseudomonas aeruginosa (ATCC 27853) [8] [µg/mL] | Minimum inhibitory concentration, Staphylococcus aureus (ATCC 25923) [9] [µg/mL] |
| --- | --- | --- | --- | --- | --- | --- | --- | --- | --- | --- | --- | --- | --- |
| CC(C)C[C@@H](NC(=O)[C@@H](CCCCN)NC(=O)[C@@H](CCCCN)NC(=O)[C@@H](Cc1ccccc1)NC(=O)[C@@H](CC(C)C)NC(=O)[C@@H](Cc1c[nH]c2ccccc12)NC(=O)[C@@H](CCCNC(=N)N)NC(=O)[C@@H](Cc1c[nH]c2ccccc12)NC(=O)[C@@H](CCCCN)NC(=O)[C@@H](CCCNC(=N)N)NC(=O)[C@H](N)CCCCN)C(=O)O [Chain310D] (H-[dK][dR][dK][dW][dR][dW][dL][dF][dK][dK][dL]-OH) | 0.03 | – | – | – | – | – | – | – | – | – | – | – | – |
| Gentamicin [reference compound] | – | 22-24 mm | 22 | 22-24 mm | 22 | 22-24 mm | 24 | 22-24 mm | 24 | 1 | 0.25 | 0.25 | 0.25 |
